According to patent US4118491A, “7-Acyl-3-(sulfaminoalkyl substituted tetrazolylthiomethyl)cephalosporins, antibacterial compositions containing them and methods of treating bacterial infections with them” (SmithKline Corporation, priority 1976, dated 1978):
In brackets after ≈: the same amount, converted by molar mass. Read-outs that look alike come from different tables or passages of the source.

Tests used:
[1] = tested on: Entero. cloacae HH 31254; test: MIC in vitro, Entero. cloacae HH 31254; assay type: cell-based; details: Enterobacter cloacae
Experimental: (§1) The compounds of Formula I have antibacterial activity against both Gram-positive and Gram-negative organisms. Minimum inhibitory concentrations (MIC's) range from 0.2 to >200 μg/ml in in vitro testing.

[2] = tested on: Strep. faecalis HH 34358; test: MIC in vitro, Strep. faecalis HH 34358; assay type: cell-based; details: for MIC: Enterococcus faecalis, HH34358, Strep. faecalis HH 34358
Experimental: as §1

[3] = tested on: S. aureus SK 23390; test: MIC in vitro, S. aureus SK 23390; assay type: cell-based; details: Staphylococcus aureus
Experimental: as §1

[4] = tested on: Pseudo. aerug. HH 63; test: MIC in vitro, Pseudo. aerug. HH 63; assay type: cell-based
Experimental: as §1

[5] = tested on: Kleb. pneumo. SK 4200; test: MIC in vitro, Kleb. pneumo. SK 4200; assay type: cell-based
Experimental: as §1

[6] = tested on: Shigella HH 117; test: MIC in vitro, Shigella HH 117; assay type: cell-based; details: for MIC: Shigella, HH117, Shigella HH 117
Experimental: as §1

[7] = tested on: Serrati A marc. ATTC 13880; test: MIC in vitro, Serrati A marc. ATTC 13880; assay type: cell-based
Experimental: as §1

[8] = tested on: Kleb. pneumo. SK 4200; test: In vivo mouse protection, Kleb. pneumo. SK 4200; details: sc, Kleb. pneumo. SK 4200, s.c.
[9] = tested on: S. aureus HH 127; test: MIC in vitro, S. aureus HH 127; assay type: cell-based; details: Staphylococcus aureus
Experimental: as §1

[10] = tested on: E. coli SK 12140; test: In vivo mouse protection, E. coli SK 12140; details: Escherichia coli
Experimental: as §1

[11] = tested on: Entero. aerog. ATTC 13048; test: MIC in vitro, Entero. aerog. ATTC 13048; assay type: cell-based
Experimental: as §1

[12] = tested on: E. coli SK 12140; test: MIC in vitro, E. coli SK 12140; assay type: cell-based; details: Escherichia coli
Experimental: as §1

[13] = tested on: Kleb. pneumo. SK 1200; test: MIC in vitro, Kleb. pneumo. SK 1200; assay type: cell-based
Experimental: as §1

[14] = tested on: E. coli HH 33779; test: MIC in vitro, E. coli HH 33779; assay type: cell-based; details: for MIC: Escherichia coli
Experimental: as §1

[15] = tested on: Proteus morgani 179; test: MIC in vitro, Proteus morgani 179; assay type: cell-based
Experimental: as §1

[16] = tested on: Salmonella ATCC 12176; test: MIC in vitro, Salmonella ATCC 12176; assay type: cell-based; details: ATCC12176, Salmonella ATCC 12176
Experimental: as §1

[17] = tested on: S. villaluz SK 70390; test: MIC in vitro, S. villaluz SK 70390; assay type: cell-based
Experimental: as §1

[18] = HH31254, Entero. cloacae HH 31254, read-out: MIC in vitro
[19] = SK23390, S. aureus SK 23390, read-out: MIC in vitro
[20] = SK12140, po, E. coli SK 12140, p.o.
[21] = SK12140, sc, E. coli SK 12140, s.c.
[22] = Entero. aerog. ATTC 13048, read-out: MIC in vitro
[23] = read-out: MIC in vitro, Entero. aerog. ATTC 13048
[24] = SK12140, E. coli SK 12140, read-out: MIC in vitro
[25] = read-out: MIC in vitro, Kleb. pneumo. SK 1200
[26] = HH33779, E. coli HH 33779, read-out: MIC in vitro
[27] = HH127, S. aureus HH 127, read-out: MIC in vitro

Row | SMILES | MIC [1, 18] [µg/mL] | MIC [2] [µg/mL] | MIC [3, 19] [µg/mL] | MIC [4] [µg/mL] | MIC [5] [µg/mL] | MIC [6] [µg/mL] | MIC [7] [µg/mL] | MIC ([9]; HH127, read-out: MIC in vitro) [µg/mL] | ED50 [10, 20] [mg/kg] | ED50 [10, 21] [mg/kg] | MIC [11, 22] [µg/mL] | MIC [11, 23] [µg/mL] | MIC [12, 24] [µg/mL] | MIC [13, 25] [µg/mL] | MIC [14, 26] [µg/mL] | MIC [9, 27] [µg/mL] | MIC [16] [µg/mL] | MIC [15] [µg/mL] | MIC [17] [µg/mL] | further results
1 | O=C(O)C1=C(CSc2nnnn2CCNS(=O)(=O)O)CSC2C(NC(=O)[C@H](O)c3ccccc3)C(=O)N12 (stereo partly drawn) [Compound 1, 7-D-mandelamido-3-[1-(2-sulfaminoethyl)tetrazol-5-ylthiomethyl]-3-cephem-4-carboxylic acid] | 1.6 (≈ 2.8 µM) | 100 (≈ 175 µM) | 0.8 (≈ 1.4 µM) | > 200 | 1.6 (≈ 2.8 µM) | 0.4 (≈ 0.7 µM) | 100 (≈ 175 µM) | 3.1 (≈ 5.42 µM) | 50 | 0.46 | 50 (≈ 87.5 µM) | 6.3 (≈ 11 µM) | 0.8 (≈ 1.4 µM) | 0.4 (≈ 0.7 µM) | 3.1 (≈ 5.42 µM) | – | – | – | – | MIC in vitro ([2]; Strep. faecalis HH 34358): 50 µg/mL (≈ 87.5 µM); MIC in vitro [5]: 0.8 µg/mL (≈ 1.4 µM); MIC in vitro ([6]; Shigella HH 117): 0.2 µg/mL (≈ 0.35 µM); ED50 [8]: 0.46 mg/kg; MIC in vitro ([13]; Kleb. pneumo. SK 1200): 0.2 µg/mL (≈ 0.35 µM); MIC in vitro ([14]; E. coli HH 33779): 1.6 µg/mL (≈ 2.8 µM); MIC in vitro [15]: 3.1 µg/mL (≈ 5.42 µM)
2 | O=C(Cc1cccs1)NC1C(=O)N2C(C(=O)O)=C(CSc3nnnn3CCNS(=O)(=O)O)CSC12 (stereo not shown) [Compound 2, 7-(2-thienylacetamido)-3-[1-(2-sulfaminoethyl)tetrazol-5-ylthiomethyl]-3-cephem-4-carboxylic acid] | 6.3 (≈ 11.2 µM) | 12.5 (≈ 22.3 µM) | – | > 200 | 3.1 (≈ 5.52 µM) | – | > 200 | – | > 50 | 1.02 | 25 (≈ 44.5 µM) | – | – | – | 12.5 (≈ 22.3 µM) | 1.6 (≈ 2.85 µM) | 12.5 (≈ 22.3 µM) | > 200 | – | MIC ([3]; SK23390, read-out: MIC in vitro): 0.4 µg/mL (≈ 0.712 µM); MIC ([12]; SK12140, read-out: MIC in vitro): 3.1 µg/mL (≈ 5.52 µM); MIC ([13]; Kleb. pneumo. SK 1200, read-out: MIC in vitro): 0.8 µg/mL (≈ 1.42 µM)
3 | O=C(Cn1cnnn1)NC1C(=O)N2C(C(=O)O)=C(CSc3nnnn3CCNS(=O)(=O)O)CSC12 (stereo not shown) [Compound 3, 7-(1-tetrazolylacetamido)-3-[1-(2-sulfaminoethyl)tetrazol-5-ylthiomethyl]-3-cephem-4-carboxylic acid] | – | 50 (≈ 91.3 µM) | 3.1 (≈ 5.66 µM) | > 200 | 0.8 (≈ 1.46 µM) | 0.4 (≈ 0.731 µM) | 200 (≈ 365 µM) | 3.1 (≈ 5.66 µM) | – | 1.56 | – | 3.1 (≈ 5.66 µM) | 0.8 (≈ 1.46 µM) | 0.4 (≈ 0.731 µM) | – | – | 0.4 (≈ 0.731 µM) | 200 (≈ 365 µM) | > 200 | MIC ([1]; HH31254, read-out: MIC in vitro): 0.8 µg/mL (≈ 1.46 µM); MIC ([14]; HH33779, read-out: MIC in vitro): 0.8 µg/mL (≈ 1.46 µM)
4 | O=C(CSC(F)(F)F)NC1C(=O)N2C(C(=O)O)=C(CSc3nnnn3CCNS(=O)(=O)O)CSC12 (stereo not shown) [Compound 4, 7-trifluoromethylthioacetamido-3-[1-(2-sulfaminoethyl)tetrazol-5-ylthiomethyl]-3-cephem-4-carboxylic acid] | 1.6 (≈ 2.76 µM) | 100 (≈ 173 µM) | 1.6 (≈ 2.76 µM) | > 200 | 0.8 (≈ 1.38 µM) | 0.8 (≈ 1.38 µM) | 100 (≈ 173 µM) | – | 50 | 1.82 | – | 6.3 (≈ 10.9 µM) | 0.8 (≈ 1.38 µM) | 0.2 (≈ 0.345 µM) | 1.6 (≈ 2.76 µM) | 1.6 (≈ 2.76 µM) | 0.4 (≈ 0.69 µM) | > 200 | > 200 | –
